ChEMBL document CHEMBL1201862, “PubChem BioAssay data set” (2004)
Several values for one entry are separate records, joined by “and”; a condition that tells them apart may be missing. Equal entries are not always repeated. Structures can show the parent of a compound that is named as a salt. Activity calls are given as the source filed them.

Legend:
Hexokinase-1 = molecular target: T1, Hexokinase-1 (Homo sapiens, UniProt P19367); assay: HK1 enzyme activation by HKDC1 hits – biochemical, selectivity assay for HKDC1 activator project, dose response (AID 504762); type: functional
T1 sequence (P19367 whole entry): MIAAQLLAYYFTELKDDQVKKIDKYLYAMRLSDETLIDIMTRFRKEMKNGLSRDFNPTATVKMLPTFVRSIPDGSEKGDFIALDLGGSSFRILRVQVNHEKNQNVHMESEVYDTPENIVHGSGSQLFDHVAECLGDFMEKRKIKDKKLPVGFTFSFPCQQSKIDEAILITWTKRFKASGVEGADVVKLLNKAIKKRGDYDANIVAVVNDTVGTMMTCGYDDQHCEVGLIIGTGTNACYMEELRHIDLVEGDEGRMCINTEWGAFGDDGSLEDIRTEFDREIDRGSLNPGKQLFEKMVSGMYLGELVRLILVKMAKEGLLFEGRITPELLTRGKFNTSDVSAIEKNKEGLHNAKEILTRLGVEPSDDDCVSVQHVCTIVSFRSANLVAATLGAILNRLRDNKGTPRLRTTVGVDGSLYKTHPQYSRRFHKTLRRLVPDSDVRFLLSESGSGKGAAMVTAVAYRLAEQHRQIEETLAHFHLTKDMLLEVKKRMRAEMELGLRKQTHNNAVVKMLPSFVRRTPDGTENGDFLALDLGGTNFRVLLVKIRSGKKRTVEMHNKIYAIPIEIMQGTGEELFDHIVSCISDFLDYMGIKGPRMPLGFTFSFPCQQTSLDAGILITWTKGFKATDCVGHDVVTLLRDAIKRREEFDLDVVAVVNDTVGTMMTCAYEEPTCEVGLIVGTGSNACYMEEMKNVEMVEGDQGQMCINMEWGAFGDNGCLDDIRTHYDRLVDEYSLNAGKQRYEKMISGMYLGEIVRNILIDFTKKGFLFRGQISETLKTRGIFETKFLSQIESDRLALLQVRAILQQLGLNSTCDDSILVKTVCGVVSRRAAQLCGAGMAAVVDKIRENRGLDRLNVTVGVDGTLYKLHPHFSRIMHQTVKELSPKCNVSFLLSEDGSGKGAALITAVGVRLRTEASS

Hexokinase HKDC1 = molecular target: T2, Hexokinase HKDC1 (Homo sapiens, UniProt Q2TB90); assay: activation of HKDC1 glucose phosphorylation – biochemical, W721R variant, dose response (AID 504730); type: functional
T2 sequence (Q2TB90 whole entry): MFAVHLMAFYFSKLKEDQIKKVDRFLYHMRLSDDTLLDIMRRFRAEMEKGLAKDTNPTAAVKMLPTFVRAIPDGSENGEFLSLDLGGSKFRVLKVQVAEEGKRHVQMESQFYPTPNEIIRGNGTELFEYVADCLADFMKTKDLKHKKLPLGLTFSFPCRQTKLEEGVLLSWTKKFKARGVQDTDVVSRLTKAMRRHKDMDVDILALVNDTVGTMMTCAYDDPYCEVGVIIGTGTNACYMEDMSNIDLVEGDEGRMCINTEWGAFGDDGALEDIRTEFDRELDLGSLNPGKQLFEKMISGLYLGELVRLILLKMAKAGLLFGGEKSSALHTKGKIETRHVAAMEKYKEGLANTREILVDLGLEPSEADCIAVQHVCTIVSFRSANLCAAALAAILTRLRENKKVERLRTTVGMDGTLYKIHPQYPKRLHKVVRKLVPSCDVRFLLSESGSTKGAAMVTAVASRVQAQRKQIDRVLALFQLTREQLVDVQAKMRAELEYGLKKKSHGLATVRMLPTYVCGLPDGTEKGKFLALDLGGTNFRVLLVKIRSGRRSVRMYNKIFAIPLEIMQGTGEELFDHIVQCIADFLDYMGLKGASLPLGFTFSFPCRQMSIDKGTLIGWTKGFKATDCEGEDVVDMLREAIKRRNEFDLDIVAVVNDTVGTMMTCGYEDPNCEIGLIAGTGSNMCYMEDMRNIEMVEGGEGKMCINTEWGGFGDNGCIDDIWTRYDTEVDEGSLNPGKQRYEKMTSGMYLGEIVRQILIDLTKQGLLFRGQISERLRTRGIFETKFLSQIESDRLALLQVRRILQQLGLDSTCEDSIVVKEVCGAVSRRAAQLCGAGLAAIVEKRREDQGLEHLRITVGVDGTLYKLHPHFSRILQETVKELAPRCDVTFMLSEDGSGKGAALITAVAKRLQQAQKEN

[1] = molecular target: Glucose-6-phosphate 1-dehydrogenase (Homo sapiens, UniProt P11413); assay: inhibition of Homo sapiens G6PD, dose series – biochemical, fluorescence, selectivity assay for P. falciparum G6PD inhibitor project, dose response (AID 504792); type: functional
Glucose-6-phosphate 1-dehydrogenase, sequence (P11413 whole entry): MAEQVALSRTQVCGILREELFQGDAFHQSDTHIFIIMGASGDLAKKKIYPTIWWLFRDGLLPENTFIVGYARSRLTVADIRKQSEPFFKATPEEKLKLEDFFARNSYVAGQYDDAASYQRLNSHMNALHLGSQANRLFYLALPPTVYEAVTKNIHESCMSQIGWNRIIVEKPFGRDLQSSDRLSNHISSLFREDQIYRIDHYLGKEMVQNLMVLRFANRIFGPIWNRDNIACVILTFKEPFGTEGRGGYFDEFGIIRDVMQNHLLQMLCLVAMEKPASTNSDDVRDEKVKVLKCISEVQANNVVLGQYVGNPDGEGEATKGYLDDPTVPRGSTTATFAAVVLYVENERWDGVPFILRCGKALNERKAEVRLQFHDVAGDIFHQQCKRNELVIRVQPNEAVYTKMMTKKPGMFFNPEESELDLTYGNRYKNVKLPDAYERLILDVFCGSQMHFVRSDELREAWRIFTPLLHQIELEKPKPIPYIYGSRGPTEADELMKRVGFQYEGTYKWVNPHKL

[2] = molecular target: T3, Mannose-6-phosphate isomerase (Homo sapiens, UniProt P34949); assay: MPI inhibition at elevated mannose 6-phosphate – biochemical, fluorescence intensity, high mannose 6-phosphate, primary screen (AID 1220)
T3 sequence (P34949 whole entry): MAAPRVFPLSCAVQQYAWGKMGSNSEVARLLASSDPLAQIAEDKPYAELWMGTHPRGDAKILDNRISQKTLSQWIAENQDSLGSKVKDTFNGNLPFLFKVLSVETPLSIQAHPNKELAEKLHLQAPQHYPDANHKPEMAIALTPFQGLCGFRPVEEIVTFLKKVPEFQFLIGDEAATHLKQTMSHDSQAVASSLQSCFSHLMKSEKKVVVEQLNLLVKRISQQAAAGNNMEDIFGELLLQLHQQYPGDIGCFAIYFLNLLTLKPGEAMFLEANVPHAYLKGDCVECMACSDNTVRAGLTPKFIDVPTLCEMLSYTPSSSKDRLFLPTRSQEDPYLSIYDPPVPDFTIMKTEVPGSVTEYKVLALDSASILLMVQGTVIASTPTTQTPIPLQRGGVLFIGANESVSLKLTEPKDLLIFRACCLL

[3] = molecular target: T4, Sphingosine 1-phosphate receptor 4 (Homo sapiens, UniProt O95977); assay: Late-stage fluorescence dose response cell-based assay to identify agonists of the Sphingosine 1-Phosphate Receptor 4 (S1P4): purchased compounds EC50. [Related pubchem assays (depositor defined):AID1509, AID1523, AID1563, AID1686, AID1701, AID1801]; type: functional
T4 sequence (O95977 whole entry): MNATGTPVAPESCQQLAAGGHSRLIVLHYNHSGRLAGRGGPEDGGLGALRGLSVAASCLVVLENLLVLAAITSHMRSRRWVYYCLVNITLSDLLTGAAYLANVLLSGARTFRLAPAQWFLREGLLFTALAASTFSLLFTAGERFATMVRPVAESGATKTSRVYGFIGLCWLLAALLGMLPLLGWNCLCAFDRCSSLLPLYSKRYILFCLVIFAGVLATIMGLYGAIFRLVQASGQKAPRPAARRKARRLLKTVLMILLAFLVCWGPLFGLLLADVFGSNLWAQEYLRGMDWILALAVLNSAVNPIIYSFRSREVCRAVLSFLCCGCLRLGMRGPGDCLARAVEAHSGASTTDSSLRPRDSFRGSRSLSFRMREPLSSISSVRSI

Coagulation factor XII = Coagulation factor XII (Homo sapiens, UniProt P00748); type: functional;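 also: activated factor XIIa alpha cleaving a fluorogenic AMC peptide substrate; inhibitor potency from loss of enzyme activity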
Coagulation factor XII, sequence (P00748 20-372 limits assumed): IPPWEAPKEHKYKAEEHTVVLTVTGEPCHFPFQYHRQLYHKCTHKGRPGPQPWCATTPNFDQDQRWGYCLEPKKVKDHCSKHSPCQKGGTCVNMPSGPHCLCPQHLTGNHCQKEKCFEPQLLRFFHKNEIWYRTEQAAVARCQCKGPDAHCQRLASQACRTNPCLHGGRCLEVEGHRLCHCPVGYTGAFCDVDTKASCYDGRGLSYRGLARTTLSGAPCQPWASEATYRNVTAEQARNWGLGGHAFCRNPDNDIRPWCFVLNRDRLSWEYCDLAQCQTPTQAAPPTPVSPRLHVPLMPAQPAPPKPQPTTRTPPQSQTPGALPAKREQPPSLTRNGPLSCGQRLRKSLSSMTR
Coagulation factor XII, sequence (P00748 373-615 limits assumed): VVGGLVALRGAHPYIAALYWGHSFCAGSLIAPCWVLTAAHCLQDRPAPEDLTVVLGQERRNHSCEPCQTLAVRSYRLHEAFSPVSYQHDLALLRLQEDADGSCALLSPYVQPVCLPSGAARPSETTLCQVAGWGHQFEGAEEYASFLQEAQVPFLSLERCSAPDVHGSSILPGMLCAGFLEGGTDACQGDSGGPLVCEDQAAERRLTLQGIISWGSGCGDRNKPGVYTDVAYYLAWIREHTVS

[4] = molecular target: T5, Neuropeptides B/W receptor type 1 (Homo sapiens, UniProt P48145); assay: Fluorescence-based dose response cell-based high throughput screening assay to identify antagonists of the G-protein coupled receptor 7 (GPR7). [Related pubchem assays: 1952 (Screening assay (GPR7 antagonists).), 1880 (Summary AID.)]; type: functional
T5 sequence (P48145 whole entry): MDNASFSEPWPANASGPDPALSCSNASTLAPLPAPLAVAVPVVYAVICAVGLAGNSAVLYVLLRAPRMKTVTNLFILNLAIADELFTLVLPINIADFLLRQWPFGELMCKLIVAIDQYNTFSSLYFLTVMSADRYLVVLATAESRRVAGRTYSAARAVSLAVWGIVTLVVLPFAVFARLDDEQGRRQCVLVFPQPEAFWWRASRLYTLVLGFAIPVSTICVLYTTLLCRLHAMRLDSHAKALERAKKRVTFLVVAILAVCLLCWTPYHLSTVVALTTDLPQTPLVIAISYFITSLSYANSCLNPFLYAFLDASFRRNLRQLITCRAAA

Ion channel NompC = Ion channel NompC (Danio rerio, UniProt Q7T1G6); assay: Dose response cell-based high-throughput screening assay for agonists of the transient receptor potential channel N1 (TRPN1). [Related pubchem assays (depositor defined):AID1424, AID1448]; type: functional
Ion channel NompC, sequence (Q7T1G6 whole entry): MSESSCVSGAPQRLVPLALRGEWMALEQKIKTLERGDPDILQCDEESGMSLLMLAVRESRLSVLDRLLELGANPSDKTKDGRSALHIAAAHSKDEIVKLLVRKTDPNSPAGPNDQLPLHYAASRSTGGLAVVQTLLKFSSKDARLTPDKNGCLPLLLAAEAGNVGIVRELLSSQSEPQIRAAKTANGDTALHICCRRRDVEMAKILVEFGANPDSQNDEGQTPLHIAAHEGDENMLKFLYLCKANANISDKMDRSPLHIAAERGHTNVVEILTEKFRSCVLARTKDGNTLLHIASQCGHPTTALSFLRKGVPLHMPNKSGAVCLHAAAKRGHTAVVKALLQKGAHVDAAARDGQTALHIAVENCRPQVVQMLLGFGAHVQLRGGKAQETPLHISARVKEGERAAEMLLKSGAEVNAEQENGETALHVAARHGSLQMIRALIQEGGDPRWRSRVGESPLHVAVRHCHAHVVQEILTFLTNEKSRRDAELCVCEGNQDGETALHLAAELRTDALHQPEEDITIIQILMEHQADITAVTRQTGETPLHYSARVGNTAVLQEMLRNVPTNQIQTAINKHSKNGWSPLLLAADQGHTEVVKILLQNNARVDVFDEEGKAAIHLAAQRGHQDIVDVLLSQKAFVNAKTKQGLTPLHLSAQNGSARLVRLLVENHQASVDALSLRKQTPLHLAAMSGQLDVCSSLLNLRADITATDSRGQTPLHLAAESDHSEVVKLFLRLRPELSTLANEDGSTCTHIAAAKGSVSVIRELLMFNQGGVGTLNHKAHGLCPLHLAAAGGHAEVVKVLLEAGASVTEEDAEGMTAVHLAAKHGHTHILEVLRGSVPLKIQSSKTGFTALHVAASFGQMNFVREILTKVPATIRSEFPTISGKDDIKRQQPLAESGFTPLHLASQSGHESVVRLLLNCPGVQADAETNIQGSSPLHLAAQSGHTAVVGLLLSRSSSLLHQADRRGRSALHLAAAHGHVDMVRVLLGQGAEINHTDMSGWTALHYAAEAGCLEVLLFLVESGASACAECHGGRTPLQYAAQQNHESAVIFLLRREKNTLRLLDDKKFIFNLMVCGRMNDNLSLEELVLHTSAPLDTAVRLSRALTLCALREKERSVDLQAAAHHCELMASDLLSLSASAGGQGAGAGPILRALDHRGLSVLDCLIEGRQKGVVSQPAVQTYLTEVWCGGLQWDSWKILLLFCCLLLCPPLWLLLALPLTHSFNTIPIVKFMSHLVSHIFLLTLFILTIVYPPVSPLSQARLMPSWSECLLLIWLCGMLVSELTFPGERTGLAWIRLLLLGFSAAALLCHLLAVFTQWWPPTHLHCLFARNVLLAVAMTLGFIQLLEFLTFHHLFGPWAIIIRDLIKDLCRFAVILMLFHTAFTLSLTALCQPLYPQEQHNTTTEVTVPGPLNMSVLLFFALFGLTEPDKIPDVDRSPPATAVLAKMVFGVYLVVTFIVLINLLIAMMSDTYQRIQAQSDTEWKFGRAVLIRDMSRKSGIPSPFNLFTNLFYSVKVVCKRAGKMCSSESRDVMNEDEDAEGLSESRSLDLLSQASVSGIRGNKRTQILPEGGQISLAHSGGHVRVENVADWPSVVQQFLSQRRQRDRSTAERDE

[5] = molecular target: Melanin-concentrating hormone receptor 1 (Homo sapiens, UniProt Q99705); assay: Fluorescence-based counterscreen for antagonists of the G-protein coupled receptor 7 (GPR7): cell-based high throughput dose response assay to identify antagonists of the melanin-concentrating hormone receptor 1 (MCHR1).; type: functional
Melanin-concentrating hormone receptor 1, sequence (Q99705 whole entry): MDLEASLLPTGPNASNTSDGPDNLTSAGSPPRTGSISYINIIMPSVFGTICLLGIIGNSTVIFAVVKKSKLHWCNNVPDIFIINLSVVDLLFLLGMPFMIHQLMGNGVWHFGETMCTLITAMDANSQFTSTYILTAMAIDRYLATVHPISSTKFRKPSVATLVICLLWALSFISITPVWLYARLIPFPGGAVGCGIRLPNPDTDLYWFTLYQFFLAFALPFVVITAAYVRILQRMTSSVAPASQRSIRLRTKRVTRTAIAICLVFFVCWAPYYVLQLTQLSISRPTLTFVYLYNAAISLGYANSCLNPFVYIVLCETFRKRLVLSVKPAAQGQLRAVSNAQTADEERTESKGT

Mucolipin-3 = molecular target: T6, Mucolipin-3 (Homo sapiens, UniProt Q8TDD5); assay: Fluorescence counterscreen assay for […] agonists: dose response cell-based high-throughput screening assay to identify agonists of the transient receptor potential channel ML3 (TRPML3). [Related pubchem assays: 1424, 1448 ]; type: functional
T6 sequence (Q8TDD5 whole entry): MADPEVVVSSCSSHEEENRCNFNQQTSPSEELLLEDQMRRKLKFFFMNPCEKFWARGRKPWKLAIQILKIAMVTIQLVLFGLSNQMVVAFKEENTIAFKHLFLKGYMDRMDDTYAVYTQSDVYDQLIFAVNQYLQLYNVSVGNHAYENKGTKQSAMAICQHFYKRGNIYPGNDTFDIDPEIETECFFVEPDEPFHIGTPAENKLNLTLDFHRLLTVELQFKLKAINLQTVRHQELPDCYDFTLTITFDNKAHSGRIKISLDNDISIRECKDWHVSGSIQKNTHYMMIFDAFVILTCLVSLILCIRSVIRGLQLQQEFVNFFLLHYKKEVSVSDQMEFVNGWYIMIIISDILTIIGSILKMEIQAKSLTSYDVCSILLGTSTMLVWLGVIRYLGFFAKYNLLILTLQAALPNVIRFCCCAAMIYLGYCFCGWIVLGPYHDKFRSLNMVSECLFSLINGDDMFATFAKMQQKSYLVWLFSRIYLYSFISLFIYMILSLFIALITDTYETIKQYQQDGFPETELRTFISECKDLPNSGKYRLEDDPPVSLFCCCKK

[6] = molecular target: T7, Rac GTPase-activating protein 1 (Homo sapiens, UniProt Q9H0H5); assay: blockers of MgcRacGAP-driven Rac1 GTP hydrolysis – biochemical, ADP Hunter fluorescence, primary and confirmatory, confirmation (AID 624330); type: functional
T7 sequence (Q9H0H5 whole entry): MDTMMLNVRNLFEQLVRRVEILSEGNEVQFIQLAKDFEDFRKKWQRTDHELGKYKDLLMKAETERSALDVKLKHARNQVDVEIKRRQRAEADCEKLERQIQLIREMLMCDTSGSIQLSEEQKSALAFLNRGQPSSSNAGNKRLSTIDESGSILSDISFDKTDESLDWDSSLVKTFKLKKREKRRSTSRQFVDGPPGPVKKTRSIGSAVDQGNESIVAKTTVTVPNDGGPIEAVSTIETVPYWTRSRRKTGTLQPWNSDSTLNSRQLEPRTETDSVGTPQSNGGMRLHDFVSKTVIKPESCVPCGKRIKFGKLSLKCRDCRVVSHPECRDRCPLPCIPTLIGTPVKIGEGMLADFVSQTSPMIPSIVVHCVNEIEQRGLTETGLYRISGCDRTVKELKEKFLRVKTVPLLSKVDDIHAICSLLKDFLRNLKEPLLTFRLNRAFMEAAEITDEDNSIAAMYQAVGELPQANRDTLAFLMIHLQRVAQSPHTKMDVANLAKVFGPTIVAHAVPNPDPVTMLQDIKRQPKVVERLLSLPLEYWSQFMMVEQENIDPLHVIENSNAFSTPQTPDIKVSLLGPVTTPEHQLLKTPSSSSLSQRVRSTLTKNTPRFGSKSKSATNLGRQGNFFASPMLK

[7] = molecular target: Induced myeloid leukemia cell differentiation protein Mcl-1 (Homo sapiens, UniProt Q07820); type: functional
Induced myeloid leukemia cell differentiation protein Mcl-1, sequence (Q07820 whole entry): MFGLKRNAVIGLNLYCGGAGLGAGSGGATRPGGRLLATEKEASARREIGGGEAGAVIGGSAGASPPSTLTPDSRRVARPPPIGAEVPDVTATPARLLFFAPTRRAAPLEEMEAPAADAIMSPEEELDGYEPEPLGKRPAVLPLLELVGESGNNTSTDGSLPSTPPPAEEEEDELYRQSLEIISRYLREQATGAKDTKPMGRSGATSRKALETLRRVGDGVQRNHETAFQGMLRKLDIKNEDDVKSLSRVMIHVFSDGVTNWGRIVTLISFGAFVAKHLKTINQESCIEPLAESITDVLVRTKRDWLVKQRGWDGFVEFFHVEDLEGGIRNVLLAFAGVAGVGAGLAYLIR

[8] = HEK-293T viability loss, compound-treated – cell-based, uHTS hits, cytotoxicity control for B/T-cell NF-kB inhibitor project, dose response (AID 489019); type: functional;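 also: IC50 reflects cytotoxicity as loss of cell viability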
BJ = assay: growth inhibition of engineered Ras-driven BJ cells – cell-based, alamar blue fluorescence, cherrypicked samples, dose response (AID 2631); type: functional; details: Homo sapiens;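 also: confirmatory dose-response assay in RAS-dependent BJ fibroblasts engineered with TERT, LT and ST, with cytotoxicity read by fluorescence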
[9] = microbe, parasite or virus in culture; type: functional; details: Mycobacterium tuberculosis

COc1ccc(NC2=NN=C(c3ccc4c(c3)OCCO4)CS2)cc1
EC50 (Hexokinase-1): 23.9 µM (inactive) | EC50 (Hexokinase HKDC1): 25 µM (inactive)

CCn1c2ccccc2c2nc3cc(S(=O)(=O)N4CCOCC4)ccc3nc21
EC50 (Hexokinase-1): > 80 µM (inactive) | IC50 [1]: > 80 µM (inactive) | EC50 (Hexokinase HKDC1): > 80 µM (inactive) | IC50 [2]: 20 µM (active)

Cc1ccc(OCC(=O)NCCc2ccc(Cl)cc2Cl)c([N+](=O)[O-])n1
EC50 [3]: > 50 µM (inactive)

COc1ccccc1CN1CCNC(=O)C1CC(=O)N(C)Cc1cnccn1 (stereo unspecified)
IC50 (Coagulation factor XII): > 50 µM (inactive)

CCNC(=O)NC(=O)C(C)OC(=O)c1c(C)nn(Cc2ccccc2Cl)c1Cl (stereo unspecified)
EC50 [3]: 1.5 µM (active) and 2.5 µM (active)

O=C(CN1C(=O)C2C3CC(C(Br)C3Br)C2C1=O)N1CCN(Cc2ccccc2)CC1 (stereo unspecified)
IC50 [4]: 4.18 µM (active) | EC50 (Ion channel NompC): 16.9 µM (inactive) | IC50 [5]: 20.7 µM (not active) | EC50 (Mucolipin-3): > 29.9 µM (not active)

O=C1/C(=C\c2ccc(O)cc2)SC(=S)N1/N=C/c1ccc(O)cc1
EC50 (Ion channel NompC): 4.9 µM (active) | IC50 [6]: 105 µM (active) | IC50 [7]: 2.48 µM (active) | EC50 (Mucolipin-3): > 29.9 µM (not active)

CC(=O)c1sc(NC(=O)COc2ccc(Cl)cc2C)nc1C
IC50 (Coagulation factor XII): > 50 µM (inactive)

COc1cccc2c1C(=O)c1c(O)c3c(c(O)c1C2=O)C[C@@](O)(C(=O)CO)C[C@@H]3O[C@H]1C[C@H](N)[C@@H](O)[C@H](C)O1 [EPIRUBICIN HYDROCHLORIDE]
IC50 [8]: > 80 µM (inactive) | EC50 (BJ): < 0.104 µM (active) | CC50 [9]: 18.7 µM (active)
